# Key:
# [1] = tested on: STAM™ mice, a murine model of NASH-HCC; assay: Murine STAM model of NASH-HCC: liver histology (H&E, NAFLD Activity Score, Sirius red fibrosis area); type: in vivo, mouse; parameters: key to NAS (mean ± SD) / NAFLD Activity Score: NAS = unweighted sum of steatosis, lobular inflammation, ballooning scores; conditions: for Lobular Inflammation score 0: number of mice: score 0 = No foci; for Hepatocyte Ballooning score 0: number of mice: score 0 = None; for Steatosis score 1: number of mice: score 1 = 5-33%; for Hepatocyte Ballooning score 1: number of mice: score 1 = Few balloon cells; for Lobular Inflammation score 2: number of mice: score 2 = 2-4 foci/200x; for Hepatocyte Ballooning score 2: number of mice: score 2 = Many cells/prominent ballooning; for NAFLD Activity Score / Sirius red-positive area: STAM mice
# Excerpt: The present invention further provides methods for reducing a fibrosis score or a nonalcoholic fatty liver disease activity score in a subject, comprising administering to a subject in need thereof an effective amount of a tablet of the invention, gemcabene calcium salt hydrate Crystal Form 4, gemcabene calcium salt hydrate Crystal Form 5 or gemcabene calcium salt hydrate Crystal Form 6. The nonalcoholic fatty liver disease activity score (NAS or NAFLD score) is a composite score that measures changes in NAFLD during therapeutic trials. NAS is a composite score comprised of three components that includes scores for steatosis, lobular inflammation and hepatocyte ballooning (Table 36). NAS is the unweighted sum of the scores for steatosis, lobular inflammation and hepatocyte ballooning. Steatosis grade is quantified as the percentage of hepatocytes that contain fat droplets. The fibrosis stage of the liver is evaluated separately from NAS by histological evaluation of the intensity of Sirius red staining of collagen in the pericentral region of liver lobules.
# A study was performed to evaluate the efficacy of gemcabene calcium salt hydrate Crystal Form 1 having a PSD90 of 52 μm as measured by laser light diffraction, in treating non-alcoholic steatosis hepatitis (NASH) in the murine STAM™ model of NASH-HCC.
# Briefly, two-day old neonatal C57BL/6 male mice were administered low-dose streptozotocin (STZ), and were subsequently fed a HFC diet from 4 weeks of age. In this model, the mice typically develop liver steatosis and diabetes, reaching steatohepatitis within 3 weeks, followed by cirrhosis within 8 weeks, and carcinoma within 16 weeks. In the current study, mice were administered daily oral gemcabene calcium salt hydrate Crystal Form 1 starting at week 6 of age and were sacrificed at week 9. […] These STAM™ groups were orally administered from week 6 one of the following: water-vehicle, gemcabene calcium salt hydrate Crystal Form 1 at 30, 100 and 300 mg/kg daily, or telmisartan ([…]®) 10 mg/kg daily. […] All groups were sacrificed at week 9. Vehicle, gemcabene calcium salt hydrate Crystal Form 1, or telmisartan were administered by oral gavage once daily.
# For Hematoxylin and Eosin (H&E) staining, sections were cut from paraffin blocks of liver tissue prefixed in Bouin's solution and stained with Lillie-Mayer's Hematoxylin (Muto Pure Chemicals Co., Ltd., Japan) and eosin solution (Wako Pure Chemical Industries). NAFLD Activity score (NAS) was calculated according to the criteria of Kleiner, D E. Et al., Hepatology, 2005; 41:1313-1321. To visualize collagen deposition, Bouin's fixed liver sections were stained using picro-Sirius red solution (Waldeck, Germany). For Masson Trichrome staining, the sections were stained with Masson's Trichrome staining Kit (Sigma, USA) according to the manufacturer's instructions.
# For quantitative analysis of fibrosis area, bright field images of Sirius red-stained sections were captured around the central vein using a digital camera (DFC295; Leica, Germany) at 200-fold magnification, and the positive areas in 5 fields/section were measured using ImageJ software (National Institute of Health, USA). Samples were analyzed in a blinded fashion.
# [2] = tested on: STAM™ mice, a murine model of NASH-HCC; assay: Murine STAM model of NASH-HCC: whole blood, plasma and liver biochemistry; conditions: mean ± SD, n = 8; for Fasting blood glucose / Plasma insulin: Day 18 after 8 hours of fasting; for Liver free fatty acid / Liver hydroxyproline / Liver triglyceride / Non-fasting blood glucose / Plasma ApoC-III / Plasma CRP / Plasma adiponectin / Plasma alanine aminotransferase / Plasma alkaline phosphatase / Plasma aspartate aminotransferase / Plasma blood urea nitrogen / Plasma creatinine / Plasma gamma-glutamyl transferase / Plasma ketone body / Plasma leptin / Plasma total bilirubin / Plasma total cholesterol / Plasma triglyceride: at termination (Day 21)
# [3] = human, in vivo
# Experimental: An open-label, two-sequence, cross-over study to assess the steady-state effects of gemcabene calcium on the single-dose pharmacokinetics (PK) of oral contraceptive tablets in healthy female subjects was conducted with 300 mg tablets containing gemcabene calcium salt hydrate Crystal Form 1 having PSD90 of 52 μm (film-coated Tablet F).
# The population for this study was generally healthy, adult female subjects of childbearing potential (≥18 to ≤35 years of age). This population supports the overall objective of the study to evaluate the effect of 600 mg of gemcabene calcium salt hydrate Crystal Form 1 having PSD90 of 52 μm at steady-state on the PK of a single dose of ON 1/35 (Ortho Novum 1/35; combined ethinyl estradiol/norethindrone oral contraceptive). The primary objective of this study was to assess the effect of daily 600 mg of gemcabene calcium salt hydrate Crystal Form 1 having PSD90 of 52 μm at steady-state on the pharmacokinetics (PK) of ON 1/35. The secondary objectives of this study were to assess the safety and tolerability of daily gemcabene 600 mg in combination with a single-dose ON 1/35 and to assess the steady-state PK of 600 mg of gemcabene calcium salt hydrate Crystal Form 1 having PSD90 of 52 μm (film-coated Tablet F×2).
# Throughout the study, 2 (12.5%) subjects in Treatment A; 4 (26.7%) subjects during gemcabene alone treatment of Treatment B, and 3 (20%) subjects during gemcabene with ON 1/35 treatment of Treatment B, had treatment-emergent adverse events (TEAEs). […] All TEAEs were considered to be mild or moderate in severity.
compound,measurement,setting,value
"CC(C)(CCCCOCCCCC(C)(C)C(=O)O)C(=O)O [gemcabene, 6-(5-carboxy-5-methyl-hexyloxy)-2,2-dimethyl-hexanoic acid]",Lobular Inflammation score 1: number of mice,"[1]; 30 mg/kg PO QD, n = 8",2
same,NAS (mean ± SD),"[1]; 30 mg/kg PO QD, n = 8",3.4 ± 1.1
same,Lobular Inflammation score 0: number of mice,"[1]; 30 mg/kg PO QD, n = 8",1
same,Hepatocyte Ballooning score 0: number of mice,"[1]; 30 mg/kg PO QD, n = 8",4
same,Steatosis score 1: number of mice,"[1]; 30 mg/kg PO QD, n = 8",8
same,Hepatocyte Ballooning score 1: number of mice,"[1]; 30 mg/kg PO QD, n = 8",2
same,Lobular Inflammation score 2: number of mice,"[1]; 30 mg/kg PO QD, n = 8",4
same,Hepatocyte Ballooning score 2: number of mice,"[1]; 30 mg/kg PO QD, n = 8",2
same,Lobular Inflammation score 3: number of mice,"[1]; 30 mg/kg PO QD, n = 8, score 3 = >4 foci/200x",1
same,NAFLD Activity Score,[1]; 30 mg/kg,3.4
same,Sirius red-positive area,[1]; 30 mg/kg,0.56%
same,Lobular Inflammation score 1: number of mice,"[1]; 100 mg/kg PO QD, n = 8",1
same,NAS (mean ± SD),"[1]; 100 mg/kg PO QD, n = 8",3.6 ± 1.4
same,Lobular Inflammation score 0: number of mice,"[1]; 100 mg/kg PO QD, n = 8",2
same,Hepatocyte Ballooning score 0: number of mice,"[1]; 100 mg/kg PO QD, n = 8",1
same,Steatosis score 1: number of mice,"[1]; 100 mg/kg PO QD, n = 8",8
same,Hepatocyte Ballooning score 1: number of mice,"[1]; 100 mg/kg PO QD, n = 8",4
same,Lobular Inflammation score 2: number of mice,"[1]; 100 mg/kg PO QD, n = 8",5
same,Hepatocyte Ballooning score 2: number of mice,"[1]; 100 mg/kg PO QD, n = 8",3
same,NAFLD Activity Score,[1]; 100 mg/kg,3.6
same,Sirius red-positive area,[1]; 100 mg/kg,0.53%
same,Lobular Inflammation score 1: number of mice,"[1]; 300 mg/kg PO QD, n = 8",2
same,NAS (mean ± SD),"[1]; 300 mg/kg PO QD, n = 8",2.5 ± 0.8
same,Steatosis score 0: number of mice,"[1]; 300 mg/kg PO QD, n = 8, score 0 = <5%",3
same,Lobular Inflammation score 0: number of mice,"[1]; 300 mg/kg PO QD, n = 8",2
same,Hepatocyte Ballooning score 0: number of mice,"[1]; 300 mg/kg PO QD, n = 8",4
same,Steatosis score 1: number of mice,"[1]; 300 mg/kg PO QD, n = 8",5
same,Hepatocyte Ballooning score 1: number of mice,"[1]; 300 mg/kg PO QD, n = 8",3
same,Lobular Inflammation score 2: number of mice,"[1]; 300 mg/kg PO QD, n = 8",4
same,Hepatocyte Ballooning score 2: number of mice,"[1]; 300 mg/kg PO QD, n = 8",1
same,NAFLD Activity Score,[1]; 300 mg/kg,2.5
same,Sirius red-positive area,[1]; 300 mg/kg,0.59%
same,Fasting blood glucose,[2]; 30 mg/kg PO QD,437 ± 42 mg/dL
same,Plasma insulin,[2]; 30 mg/kg PO QD,0.13 ± 0.04 ng/mL
same,Liver free fatty acid,[2]; 30 mg/kg PO QD,35.1 ± 8.4 pEq/g liver
same,Liver hydroxyproline,[2]; 30 mg/kg PO QD,0.66 ± 0.12 μg/mg total protein
same,Liver triglyceride,[2]; 30 mg/kg PO QD,49.2 ± 8.6 mg/g liver
same,Non-fasting blood glucose,[2]; 30 mg/kg PO QD,607 ± 48 mg/dL
same,Plasma ApoC-III,[2]; 30 mg/kg PO QD,6.6 ± 0.8 gg/mL
same,Plasma CRP,[2]; 30 mg/kg PO QD,2.5 ± 0.3 gg/mL
same,Plasma adiponectin,[2]; 30 mg/kg PO QD,4.1 ± 0.9 gg/mL
same,Plasma alanine aminotransferase,[2]; 30 mg/kg PO QD,41 ± 15 U/L
same,Plasma alkaline phosphatase,[2]; 30 mg/kg PO QD,382 ± 78 U/L
same,Plasma aspartate aminotransferase,[2]; 30 mg/kg PO QD,100 ± 44 U/L
same,Plasma blood urea nitrogen,[2]; 30 mg/kg PO QD,25.0 ± 3.9 mg/dL
same,Plasma creatinine,[2]; 30 mg/kg PO QD,0.1 ± 0.0 mg/dL
same,Plasma gamma-glutamyl transferase,[2]; 30 mg/kg PO QD,1 ± 0 U/L
same,Plasma ketone body,[2]; 30 mg/kg PO QD,9.43 ± 2.35 m M
same,Plasma leptin,[2]; 30 mg/kg PO QD,3.1 ± 1.2 ng/mL
same,Plasma total bilirubin,[2]; 30 mg/kg PO QD,0.2 ± 0.1 mg/dL
same,Plasma total cholesterol,[2]; 30 mg/kg PO QD,194 ± 17 mg/dL
same,Plasma triglyceride,[2]; 30 mg/kg PO QD,319 ± 198 mg/dL
same,Fasting blood glucose,[2]; 100 mg/kg PO QD,441 ± 46 mg/dL
same,Plasma insulin,[2]; 100 mg/kg PO QD,0.17 ± 0.06 ng/mL
same,Liver free fatty acid,[2]; 100 mg/kg PO QD,38.4 ± 8.5 pEq/g liver
same,Liver hydroxyproline,[2]; 100 mg/kg PO QD,0.74 ± 0.38 μg/mg total protein
same,Liver triglyceride,[2]; 100 mg/kg PO QD,58.4 ± 14.5 mg/g liver
same,Non-fasting blood glucose,[2]; 100 mg/kg PO QD,653 ± 53 mg/dL
same,Plasma ApoC-III,[2]; 100 mg/kg PO QD,6.0 ± 2.5 gg/mL
same,Plasma CRP,[2]; 100 mg/kg PO QD,1.9 ± 0.3 gg/mL
same,Plasma adiponectin,[2]; 100 mg/kg PO QD,4.1 ± 0.5 gg/mL
same,Plasma alanine aminotransferase,[2]; 100 mg/kg PO QD,27 ± 7 U/L
same,Plasma alkaline phosphatase,[2]; 100 mg/kg PO QD,642 ± 167 U/L
same,Plasma aspartate aminotransferase,[2]; 100 mg/kg PO QD,88 ± 32 U/L
same,Plasma blood urea nitrogen,[2]; 100 mg/kg PO QD,29.8 ± 4.3 mg/dL
same,Plasma creatinine,[2]; 100 mg/kg PO QD,0.1 ± 0.1 mg/dL
same,Plasma gamma-glutamyl transferase,[2]; 100 mg/kg PO QD,1 ± 0 U/L
same,Plasma ketone body,[2]; 100 mg/kg PO QD,5.75 ± 3.24 m M
same,Plasma leptin,[2]; 100 mg/kg PO QD,4.3 ± 1.2 ng/mL
same,Plasma total bilirubin,[2]; 100 mg/kg PO QD,0.3 ± 0.2 mg/dL
same,Plasma total cholesterol,[2]; 100 mg/kg PO QD,228 ± 37 mg/dL
same,Plasma triglyceride,[2]; 100 mg/kg PO QD,191 ± 57 mg/dL
same,Fasting blood glucose,[2]; 300 mg/kg PO QD,407 ± 15 mg/dL
same,Plasma insulin,[2]; 300 mg/kg PO QD,0.13 ± 0.04 ng/mL
same,Liver free fatty acid,[2]; 300 mg/kg PO QD,46.0 ± 5.5 pEq/g liver
same,Liver hydroxyproline,[2]; 300 mg/kg PO QD,0.70 ± 0.10 μg/mg total protein
same,Liver triglyceride,[2]; 300 mg/kg PO QD,56.0 ± 13.9 mg/g liver
same,Non-fasting blood glucose,[2]; 300 mg/kg PO QD,638 ± 63 mg/dL
same,Plasma ApoC-III,[2]; 300 mg/kg PO QD,6.2 ± 0.7 gg/mL
same,Plasma CRP,[2]; 300 mg/kg PO QD,1.9 ± 0.4 gg/mL
same,Plasma adiponectin,[2]; 300 mg/kg PO QD,4.9 ± 0.5 gg/mL
same,Plasma alanine aminotransferase,[2]; 300 mg/kg PO QD,32 ± 14 U/L
same,Plasma alkaline phosphatase,[2]; 300 mg/kg PO QD,794 ± 57 U/L
same,Plasma aspartate aminotransferase,[2]; 300 mg/kg PO QD,147 ± 122 U/L
same,Plasma blood urea nitrogen,[2]; 300 mg/kg PO QD,30.1 ± 5.8 mg/dL
same,Plasma creatinine,[2]; 300 mg/kg PO QD,0.2 ± 0.1 mg/dL
same,Plasma gamma-glutamyl transferase,[2]; 300 mg/kg PO QD,1 ± 0 U/L
same,Plasma ketone body,[2]; 300 mg/kg PO QD,5.68 ± 3.08 m M
same,Plasma leptin,[2]; 300 mg/kg PO QD,3.2 ± 1.1 ng/mL
same,Plasma total bilirubin,[2]; 300 mg/kg PO QD,0.3 ± 0.1 mg/dL
same,Plasma total cholesterol,[2]; 300 mg/kg PO QD,234 ± 45 mg/dL
same,Plasma triglyceride,[2]; 300 mg/kg PO QD,149 ± 32 mg/dL
same,subjects with a drug-related TEAE (constipation),[3]; female,1 subject
same,serious adverse events (SAEs),[3],no serious adverse events
same,tolerability,[3],well tolerated

# Reference: US20200253877A1, “GEMCABENE, PHARMACEUTICALLY ACCEPTABLE SALTS THEREOF, COMPOSITIONS THEREOF AND METHODS OF USE THEREFOR” (NEUROBO PHARMACEUTICALS, INC., priority 2018, published 2020)
